SMILES strings stand for the structures.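 Test compounds were applied to cells in 96-well plates for 48 hours at 5 doses. Abbreviation: GI50, concentration required for 50% inhibition of growth.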 Active and inactive are the calls of the source. Cut-off read from the data, not from the text of the source: active = GI50 up to about 1.1 µM and inactive = higher. A value given as a limit tells only on which side of the number the result lay.

Test systems include HOP-18; KM-20L2; DMS-273; LXFL 529; DLD-1; RXF 631; XF498; BT-549; MDA-N.
Common to all, as to assay: growth of human tumour cells (NCI), 48 h

Turning to `O=C1OC(=O)c2c1nc1ccccc1c2-c1ccccc1`, the GI50 in the experiment on HOP-18, in the experiment on KM-20L2, in the experiment with DMS-273, in the experiment with LXFL 529, in the experiment with DLD-1 and in the experiment with RXF 631 was > 100 µM (inactive) each time.

`C/C(=N\NC(=S)N1CCC(C2CCN(C(=S)N/N=C(\C)c3ccccn3)CC2)CC1)c1ccccn1`: the GI50 with HOP-18 is > 100 µM (inactive); in the experiment with KM-20L2 it was > 100 µM (inactive); in the experiment on DMS-273 it was 64.1 µM (inactive); in the experiment with XF498 it was 35 µM (inactive); in the experiment on LXFL 529, 55.3 µM (inactive); in the experiment on DLD-1, > 100 µM (inactive). In addition, in the experiment on RXF 631, the GI50 was > 100 µM (inactive).

With `Cc1cccc(C(C)(C)C)c1NC(=O)CCl`, the GI50 with HOP-18, in the experiment on KM-20L2, in the experiment on DMS-273, with XF498, in the experiment on LXFL 529 and in the experiment with DLD-1 was > 100 µM (inactive) throughout. Besides, in the experiment with RXF 631, the GI50 is > 100 µM (inactive).

In the case of `CC(C)CCCC(C)[C@H]1CCC2[C@H]3C(CC[C@@]21C)[C@@]1(C)CCC=C[C@]12C[C@@H]2[C@@H]3O` (stereo partly specified), the GI50 in the experiment on HOP-18, in the experiment on KM-20L2, with DMS-273, in the experiment with LXFL 529, in the experiment with DLD-1 and with RXF 631 was > 100 µM (inactive) each time.

With `CCOC(=O)c1cc(C(=O)O)c(=O)n2c1[nH]c1ccccc12`, the GI50 with HOP-18 was 42.1 µM (inactive); with KM-20L2, > 100 µM (inactive); with DMS-273 it was 56.1 µM (inactive); with XF498, > 100 µM (inactive); with LXFL 529, 75.7 µM (inactive); in the experiment with DLD-1, 99.8 µM (inactive). Further, the GI50 in the experiment with RXF 631 was > 100 µM (inactive).

Turning to `C/C(=N\NC(=S)N1CCN(c2ccccn2)CC1)c1nccs1`, the GI50 in the experiment on HOP-18 is 2.92 µM (inactive); in the experiment on KM-20L2 it was < 0.0294 µM (active); with DMS-273, 0.351 µM (active); with XF498, 13 µM (inactive); in the experiment with BT-549 it was 2.02 µM (inactive); in the experiment on LXFL 529, 0.01 µM (active). The values for the GI50 in the experiment with MDA-N and in the experiment on RXF 631 were 0.431 µM (active) and 1.05 µM (active), respectively.

For `CC(=O)Nc1ccc(C2=N/C(=C\c3ccc(Cl)cc3)C(=O)O2)cc1`, the GI50 is > 100 µM (inactive) in the experiment on HOP-18; 84.7 µM (inactive) in the experiment on KM-20L2; 66.5 µM (inactive) in the experiment with DMS-273; 22 µM (inactive) in the experiment on XF498; 24.4 µM (inactive) with LXFL 529; 31.9 µM (inactive) in the experiment on DLD-1.

`Cn1c(=O)c(C(c2ccccc2)c2c(O)c3ccccc3n(C)c2=O)c(O)c2ccccc21`: the GI50 is > 100 µM (inactive) in the experiment on HOP-18; > 100 µM (inactive) in the experiment on KM-20L2; > 100 µM (inactive) in the experiment with DMS-273; > 100 µM (inactive) in the experiment on XF498; > 100 µM (inactive) in the experiment on LXFL 529; 88.7 µM (inactive) in the experiment with DLD-1. Besides, the GI50 in the experiment with RXF 631 was > 100 µM (inactive).

As for `CN(C)c1ncnc2c1Cc1ccccc1C(=O)N2C`, the GI50 in the experiment with HOP-18, with KM-20L2, in the experiment on DMS-273, in the experiment with XF498, in the experiment with LXFL 529 and in the experiment with DLD-1 was > 100 µM (inactive) in each case. For the same compound, the GI50 in the experiment with RXF 631 is > 100 µM (inactive).

Consider `NC(=O)NCc1c(C(N)=O)ncn1Cc1ccccc1`, for which the GI50 in the experiment on HOP-18, with KM-20L2, with DMS-273, with XF498, in the experiment on LXFL 529 and with DLD-1 was > 100 µM (inactive) each time.

For `COC(=O)C1=C(C)N(NC(=O)c2ccccc2)C(C)(O)C12CCOC2=O` (stereo unspecified), the GI50 in the experiment with HOP-18, in the experiment with KM-20L2, in the experiment on DMS-273, in the experiment with XF498, with LXFL 529 and in the experiment with DLD-1 was > 100 µM (inactive) throughout.

Consider `Cc1cc(Br)cc(C)c1NC(=O)C(=O)CC(=O)c1sc(-n2nc(-c3ccccc3)cc2-c2ccccc2)nc1C`, for which the GI50 in the experiment on HOP-18, in the experiment on KM-20L2, in the experiment on DMS-273, in the experiment on LXFL 529, with DLD-1 and in the experiment on RXF 631 was > 100 µM (inactive) in each case.

Regarding `COC1CCC2C(=O)CCCC2O1` (stereo unspecified), the GI50 in the experiment with HOP-18, with KM-20L2, in the experiment with DMS-273, in the experiment with XF498, in the experiment on LXFL 529 and with DLD-1 was > 100 µM (inactive) each time. Besides, the GI50 in the experiment on RXF 631 is > 100 µM (inactive).

For the compound `COc1ccc(NCc2cc(OC)cc(OC)c2)cc1`, the GI50 with HOP-18 was > 42.7 µM (inactive); in the experiment with KM-20L2, 10.7 µM (inactive); in the experiment with DMS-273, 6.15 µM (inactive); in the experiment on XF498 it was 4.3 µM (inactive); in the experiment with LXFL 529, 26.2 µM (inactive); in the experiment on DLD-1, 32.6 µM (inactive). Moreover, in the experiment on RXF 631, the GI50 is 10.5 µM (inactive).

For `CC1(S)CC2C(CC1Sc1ccccc1)C2(C)C` (stereo unspecified), the GI50 with HOP-18, with DMS-273, in the experiment on XF498, with LXFL 529 and in the experiment on DLD-1 was > 100 µM (inactive) throughout.

Regarding `CCc1cccc(C)c1NC(=O)C(=O)CC(=O)c1ccc(Cl)s1`, the GI50 in the experiment on HOP-18, in the experiment with KM-20L2, with LXFL 529, with DLD-1 and in the experiment on RXF 631 was > 100 µM (inactive) in each case.

Consider `O=C1/C(=C/c2ccc(O)cc2)CCC1CNc1ccc(Cl)cc1` (stereo unspecified), for which the GI50 with HOP-18 was 6.08 µM (inactive); in the experiment with KM-20L2 it was 0.579 µM (active); in the experiment on DMS-273, 0.836 µM (active); with XF498 it was 2.7 µM (inactive); in the experiment with BT-549 it was 12.6 µM (inactive); in the experiment on LXFL 529, 0.357 µM (active). Further, the results for the GI50 with MDA-N, in the experiment with DLD-1 and in the experiment on RXF 631 were 6.53 µM (inactive), 0.912 µM (active) and 8.89 µM (inactive), respectively.

Turning to `C=C1CC[C@@H]2C(C)(C)C(O)CCC2(C)C1COc1ccc2ccc(=O)oc2c1` (stereo partly specified), the GI50 in the experiment with HOP-18 was 19.6 µM (inactive); in the experiment with KM-20L2, 19.1 µM (inactive); in the experiment with DMS-273, 14.3 µM (inactive); in the experiment with XF498 it was 16 µM (inactive); with LXFL 529, 11.2 µM (inactive); in the experiment with DLD-1, 15.7 µM (inactive).

For `CN(C)CCNc1nc(-c2cccs2)cc(-c2cccs2)n1`, the GI50 was < 0.01 µM (active) with HOP-18; 10.8 µM (inactive) in the experiment with DMS-273; 3.39 µM (inactive) with XF498; 14.8 µM (inactive) in the experiment with LXFL 529; 22.5 µM (inactive) with DLD-1.

As for `CS(=O)(=O)OC1CCC2(C#N)CCC1C2=O` (stereo unspecified), the GI50 is > 100 µM (inactive) with HOP-18; 54.5 µM (inactive) with KM-20L2; 22.5 µM (inactive) in the experiment on DMS-273; > 100 µM (inactive) in the experiment on XF498; > 100 µM (inactive) in the experiment with LXFL 529; > 100 µM (inactive) with DLD-1. Moreover, the GI50 in the experiment on RXF 631 was > 100 µM (inactive).

Consider `Cc1cccc2cc3cccc(C(=O)NCCN(C)C)c3nc12`, for which the GI50 in the experiment with HOP-18 is 0.399 µM (active); in the experiment with KM-20L2, 0.242 µM (active); in the experiment with DMS-273, 0.0374 µM (active); with LXFL 529, 0.275 µM (active); in the experiment with DLD-1 it was 0.119 µM (active); in the experiment with RXF 631, 0.0538 µM (active).

Turning to `C#CCN(N=O)C(=O)NCCCCC(NC(C)=O)C(=O)NCc1ccccc1` (stereo unspecified), the GI50 in the experiment on HOP-18 is > 100 µM (inactive); in the experiment on KM-20L2 it was > 100 µM (inactive); in the experiment on XF498 it was 2.68 µM (inactive); with LXFL 529, > 100 µM (inactive); in the experiment on DLD-1, > 100 µM (inactive).

Source of the values: ChEMBL document CHEMBL1201862, “PubChem BioAssay data set” (2004).
